Measurements: PMC6726858, “Discovery and characterization of a small‐molecule enteropeptidase inhibitor, SCO‐792” (Pharmacology Research & Perspectives, 2019)
Like-named read-outs stand apart in the source and are kept apart here. *: point of attachment. βNA = c1ccc2cc(N*)ccc2c1

Experiments:
[1] = molecular target: T1, recombinant light chain of human enteropeptidase (Homo sapiens, UniProt P98073); experiment: Determination of K m value of enteropeptidase for substrates; format: biochemical; details: Michaelis–Menten fit of initial velocities
T1 construct: purchased ITSI‐Biosciences (Johnstown, PA)
T1 sequence (P98073 785-1019 limits assumed): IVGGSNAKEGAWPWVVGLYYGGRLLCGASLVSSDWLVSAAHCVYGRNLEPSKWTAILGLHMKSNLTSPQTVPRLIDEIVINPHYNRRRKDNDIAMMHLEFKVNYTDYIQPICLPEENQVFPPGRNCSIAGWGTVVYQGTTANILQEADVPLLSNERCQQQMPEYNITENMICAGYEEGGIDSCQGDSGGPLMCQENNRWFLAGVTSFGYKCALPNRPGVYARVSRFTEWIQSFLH
Source text: Enteropeptidase is produced as a proenteropeptidase in enterocytes, the activation of which requires digestion to a light chain and a heavy chain. The light chain contains the catalytic active site, whereas the disulfide‐linked heavy chain provides the anchor to the brush border membrane. Thus, we used recombinant light chain of human enteropeptidase to discover its inhibitors. To identify small‐molecule enteropeptidase inhibitors, we designed two specific dual‐labeled substrates and developed enzyme assay systems. In the assay, the energy of the donor of an uncleaved substrate is transferred to the proximal acceptor at the opposite side of the substrate. When protease cleaves the substrate, the pair separates and the donor no longer transfers its emission to the acceptor, which leads to an increase in the fluorescence intensity observed from the donor.15 Enteropeptidase activity was measured with our designed substrates, Cy5‐labeled (Figure 1C) and 5FAM‐labeled substrates (Figure 1E), and commercially available substrate, H‐Gly‐Asp‐Asp‐Asp‐Asp‐Lys‐βNA (GDDDDK‐βNA), naphthylamine (Figure 1A). In our assay system, the fluorescence signal from the enzyme reaction increased in a time‐dependent manner. […]

[2] = molecular target: T2, human recombinant enteropeptidase (Homo sapiens, UniProt P98073); experiment: Enteropeptidase enzyme assay (human recombinant enteropeptidase, FRET substrate); format: biochemical; details: 120‐minute incubation; read-out: IC50 (95% confidence intervals), human enteropeptidase activity
T2 construct: purchased ITSI‐Biosciences (Johnstown, PA)
T2 sequence (P98073 785-1019 limits assumed): as above
Method: In the HTS, enzyme and substrate were dissolved in the enteropeptidase assay buffer [50 mmol/L Tricine, pH 8.0, 0.01% (w/v) Tween20, and 10 mmol/L CaCl2]. Twenty‐five nanoliters of compound solution dissolved in DMSO was added to a 1536‐well black plate, and then 2 μL of 90 mU/mL human recombinant enteropeptidase solution was added to the plate and incubated at room temperature for 60 minutes. Next, 2 μL of substrate solution [2.1 μmol/L QSY21‐Gly‐Asp‐Asp‐Asp‐Lys‐Ile‐Val‐Gly‐Gly‐Lys (Cy5)] was added to the plate and incubated at room temperature for 30 minutes. After incubation, 2 μL of 30 mmol/L H2SO4 solution was added to stop the reaction. The fluorescence was measured at an excitation wavelength of 620 nm and an emission wavelength of 685 nm by multilabel plate reader EnVision (PerkinElmer, Waltham, MA).
For kinetic analysis, compounds were dissolved in DMSO and then diluted in the enteropeptidase assay buffer. […] The fluorescence was measured every minute at an excitation wavelength of 485 nm and an emission wavelength of 520 nm using an EnVision multilabel plate reader. The progress curves were fitted to the following equation to determine the values for k obs, the apparent rate constant from initial rate v 0 to steady state rate v s:(1) F=vst+(v0-vs)(1-e^-kobst)/kobs+F0, where t is the time, F is the fluorescence, and F 0 is the fluorescence at time t = 0. […]

[3] = molecular target: T2, human recombinant enteropeptidase; experiment: Kinetic analysis of enteropeptidase inhibition (progress curves, k obs); format: biochemical; details: for k inact/K I: 5FAM‐labeled substrate 0.7 μmol/L, corrected for [S]/Km
Method: For kinetic analysis, compounds were dissolved in DMSO and then diluted in the enteropeptidase assay buffer. Five microliters of compound solution was added to a 384‐well black plate followed by 5 μL of substrate solution [2.1 μmol/L 5FAM‐Abu‐Gly‐Asp‐Asp‐Asp‐Lys‐Ile‐Val‐Gly‐Gly‐Lys (CPQ2)‐Lys‐Lys‐NH2] and 5 μL of 24 mU/mL human recombinant enteropeptidase solution and mixed. The final concentration of substrate was 0.7 μmol/L, which is almost the same as the K m value. The fluorescence was measured every minute at an excitation wavelength of 485 nm and an emission wavelength of 520 nm using an EnVision multilabel plate reader. The progress curves were fitted to the following equation to determine the values for k obs, the apparent rate constant from initial rate v 0 to steady state rate v s:(1) F=vst+(v0-vs)(1-e^-kobst)/kobs+F0, where t is the time, F is the fluorescence, and F 0 is the fluorescence at time t = 0.
The k inact/K I,app value was determined as the slope of the [I] vs k obs plot, and the corrected k inact/K I value was also estimated according to the following equation:(2) kinact/KI,app=kinact/KI/(1+[S]/Km), where [I] is the concentration of inhibitor, [S] is the concentration of substrate, and K m is the Michaelis–Menten constant.

[4] = molecular target: T2, human recombinant enteropeptidase; experiment: Dissociation assay (rapid dilution); format: biochemical
Method: For the dissociation assay, compounds were dissolved in DMSO and then diluted in the enteropeptidase assay buffer. Ten microliters of compound solution was added to a 96‐well plate, and then 10 μL of 100 mU/mL human recombinant enteropeptidase solution was added to the plate and incubated at room temperature for 120 minutes. The concentration of the compound was equal to 10‐fold of the IC50 value upon incubation for 120 minutes. After this incubation, 2 μL of an compound‐enzyme mixture was transferred to a 96‐well black plate, and then 200 μL of substrate solution [3 μmol/L 5FAM‐Abu‐Gly‐Asp‐Asp‐Asp‐Lys‐Ile‐Val‐Gly‐Gly‐Lys(CPQ2)‐Lys‐Lys‐NH2] was added to the well. By its rapid dilution, the concentration of the inhibitor dropped from 10‐fold above the IC50 to 10‐fold below it. The fluorescence was measured every […] at an excitation wavelength of 485 nm and an emission wavelength of 520 nm using an EnVision multilabel plate reader. The progress curves were fitted to the following equations to determine the values for k off and dissociation half‐life, t 1/2.(3) F=vst+((v0-vs)(1-e^-kofft))/koff+F0 (4) t1/2=ln(2)/koff

[5] = system: chymotrypsin; experiment: Serine protease selectivity: chymotrypsin; format: biochemical; details: at 10 μmol/L
[6] = molecular target: DPP‐4 (Homo sapiens, UniProt P27487); experiment: Serine protease selectivity: DPP‐4; format: biochemical; details: at 10 μmol/L; read-out: inhibitory activity against DPP‐4
Sequence of DPP‐4 (P27487 whole entry, species assumed): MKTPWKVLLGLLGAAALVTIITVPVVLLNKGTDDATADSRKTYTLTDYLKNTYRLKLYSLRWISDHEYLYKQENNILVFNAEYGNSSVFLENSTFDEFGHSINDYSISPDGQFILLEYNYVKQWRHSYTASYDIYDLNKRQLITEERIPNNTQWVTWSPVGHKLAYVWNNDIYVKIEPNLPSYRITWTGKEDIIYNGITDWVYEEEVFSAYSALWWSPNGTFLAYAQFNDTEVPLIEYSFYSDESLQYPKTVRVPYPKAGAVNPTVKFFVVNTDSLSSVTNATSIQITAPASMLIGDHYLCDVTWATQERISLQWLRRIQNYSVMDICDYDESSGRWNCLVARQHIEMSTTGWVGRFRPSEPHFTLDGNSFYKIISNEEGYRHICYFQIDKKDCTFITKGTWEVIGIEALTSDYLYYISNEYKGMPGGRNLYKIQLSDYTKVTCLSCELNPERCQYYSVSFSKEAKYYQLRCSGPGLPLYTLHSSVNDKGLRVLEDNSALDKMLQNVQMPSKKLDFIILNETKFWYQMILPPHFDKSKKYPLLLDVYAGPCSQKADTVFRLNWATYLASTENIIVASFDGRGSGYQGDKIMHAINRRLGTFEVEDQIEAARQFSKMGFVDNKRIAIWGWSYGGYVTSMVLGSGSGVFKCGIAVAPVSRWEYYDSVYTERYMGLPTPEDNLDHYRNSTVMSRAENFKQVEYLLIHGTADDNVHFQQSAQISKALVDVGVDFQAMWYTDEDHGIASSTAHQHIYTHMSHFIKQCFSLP

[7] = molecular target: T3, factor XIIa (Homo sapiens, UniProt P00748); experiment: Serine protease selectivity: factor XIIa; format: biochemical; details: at 10 μmol/L; read-out: inhibitory activity against factor XIIa
T3 sequence (P00748 373-615 limits assumed): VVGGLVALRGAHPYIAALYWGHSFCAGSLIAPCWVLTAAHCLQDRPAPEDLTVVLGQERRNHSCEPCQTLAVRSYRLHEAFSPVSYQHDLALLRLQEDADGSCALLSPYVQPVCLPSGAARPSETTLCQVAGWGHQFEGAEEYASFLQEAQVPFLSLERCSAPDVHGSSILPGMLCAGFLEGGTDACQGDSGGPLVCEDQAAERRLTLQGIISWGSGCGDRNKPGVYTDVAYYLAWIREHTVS

[8] = molecular target: factor Xa (Homo sapiens, UniProt P00742); experiment: Serine protease selectivity: factor Xa; format: biochemical; details: at 10 μmol/L; read-out: inhibitory activity against factor Xa
Sequence of factor Xa (P00742 235-488 limits assumed): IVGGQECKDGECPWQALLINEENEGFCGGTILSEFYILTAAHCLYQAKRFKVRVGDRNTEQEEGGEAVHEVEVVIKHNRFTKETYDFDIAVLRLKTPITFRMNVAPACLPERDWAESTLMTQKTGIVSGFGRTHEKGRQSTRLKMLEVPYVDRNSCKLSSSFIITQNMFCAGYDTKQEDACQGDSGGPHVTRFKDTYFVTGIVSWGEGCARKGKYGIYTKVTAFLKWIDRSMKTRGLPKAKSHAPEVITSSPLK
Sequence of factor Xa (P00742 41-179 partner limits assumed): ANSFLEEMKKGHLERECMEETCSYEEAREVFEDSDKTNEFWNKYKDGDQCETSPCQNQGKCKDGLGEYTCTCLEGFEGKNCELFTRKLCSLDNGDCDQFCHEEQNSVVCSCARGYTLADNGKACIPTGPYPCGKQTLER

[9] = molecular target: thrombin (Homo sapiens, UniProt P00734); experiment: Serine protease selectivity: thrombin; format: biochemical; details: at 10 μmol/L; read-out: inhibitory activity against thrombin
[10] = molecular target: plasma kallikrein (Homo sapiens, UniProt P03952); experiment: Serine protease selectivity: plasma kallikrein (Panlabs Enzymatic Assay Services, Eurofins); format: biochemical
Sequence of plasma kallikrein (P03952 391-638 limits assumed, species assumed): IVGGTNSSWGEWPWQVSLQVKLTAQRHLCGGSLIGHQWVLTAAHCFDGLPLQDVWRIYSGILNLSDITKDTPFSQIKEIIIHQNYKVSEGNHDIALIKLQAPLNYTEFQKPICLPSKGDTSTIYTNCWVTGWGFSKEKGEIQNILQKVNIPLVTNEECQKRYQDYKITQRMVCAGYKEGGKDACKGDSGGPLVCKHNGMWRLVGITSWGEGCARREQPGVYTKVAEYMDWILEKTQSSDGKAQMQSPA
Sequence of plasma kallikrein (P03952 20-390 partner limits assumed, species assumed): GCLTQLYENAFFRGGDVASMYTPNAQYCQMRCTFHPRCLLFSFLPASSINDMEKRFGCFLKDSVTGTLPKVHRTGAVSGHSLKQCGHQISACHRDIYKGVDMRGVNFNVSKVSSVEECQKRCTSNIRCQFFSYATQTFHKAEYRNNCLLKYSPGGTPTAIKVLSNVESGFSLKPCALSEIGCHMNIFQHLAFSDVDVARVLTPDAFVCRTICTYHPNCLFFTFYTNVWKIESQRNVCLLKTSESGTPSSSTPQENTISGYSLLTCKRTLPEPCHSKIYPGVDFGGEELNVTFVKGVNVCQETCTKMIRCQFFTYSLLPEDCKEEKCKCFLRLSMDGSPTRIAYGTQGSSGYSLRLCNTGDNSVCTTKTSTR

[11] = molecular target: plasmin (Homo sapiens, UniProt P00747); experiment: Serine protease selectivity: plasmin (Panlabs Enzymatic Assay Services, Eurofins); format: biochemical
Sequence of plasmin (P00747 581-810 limits assumed, species assumed): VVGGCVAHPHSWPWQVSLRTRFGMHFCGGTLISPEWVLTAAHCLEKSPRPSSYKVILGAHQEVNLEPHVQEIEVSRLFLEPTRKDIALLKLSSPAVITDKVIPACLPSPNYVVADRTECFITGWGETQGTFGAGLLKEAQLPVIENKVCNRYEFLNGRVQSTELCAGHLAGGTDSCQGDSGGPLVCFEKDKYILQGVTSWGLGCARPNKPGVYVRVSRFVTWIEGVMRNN
Sequence of plasmin (P00747 97-580 partner limits assumed, species assumed): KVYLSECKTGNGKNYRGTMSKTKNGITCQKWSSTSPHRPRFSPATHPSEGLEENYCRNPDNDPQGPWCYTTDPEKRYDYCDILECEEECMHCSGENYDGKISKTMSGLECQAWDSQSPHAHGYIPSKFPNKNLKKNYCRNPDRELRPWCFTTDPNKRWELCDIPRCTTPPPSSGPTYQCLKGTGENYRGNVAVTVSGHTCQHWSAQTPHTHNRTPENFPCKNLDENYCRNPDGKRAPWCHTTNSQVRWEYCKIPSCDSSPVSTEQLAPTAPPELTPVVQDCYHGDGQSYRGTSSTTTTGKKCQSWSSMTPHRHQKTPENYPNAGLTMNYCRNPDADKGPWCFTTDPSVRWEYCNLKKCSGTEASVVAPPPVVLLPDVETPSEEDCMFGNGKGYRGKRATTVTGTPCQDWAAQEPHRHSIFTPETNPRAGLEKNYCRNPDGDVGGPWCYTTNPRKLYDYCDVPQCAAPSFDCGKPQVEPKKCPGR

[12] = Pharmacokinetic study in rats; format: in vivo, Sprague‐Dawley rats; details: for AUC(0-t): read-out: AUC0–24 h
Method: Male Sprague‐Dawley rats were obtained from Charles River Laboratories Japan, Inc. (Yokohama, Japan). A pharmacokinetic study was conducted when the animals were 8 weeks old. For oral administration, SCO‐792 was suspended in a 0.5% (w/v) methylcellulose solution. For intravenous administration, SCO‐792 was dissolved in DMSO and added with saline to prepare a dosing formulation at a concentration of 0.2 mg/mL (DMSO:saline = 2:8 (v/v)). The oral dosing formulations were mixed well and given to fed‐male rats at single doses of 10 mg/5 ml/kg using polypropylene syringes with gavage needles. The intravenous dosing formulation was injected into the femoral vein of fed‐male rats at a dose of 0.2 mg/1 ml/kg using polypropylene syringes with needles under anesthesia with isoflurane. The blood was collected at the indicated time points, and the plasma concentrations of SCO‐792 were determined by high‐performance liquid chromatography/tandem mass spectrometry.

[13] = system: plasma branched‐chain amino acids (BCAA); experiment: Oral protein challenge in rats (plasma BCAA); format: in vivo, Sprague‐Dawley rats; details: 10, 30 mg/kg oral, ≤4 hour prior to whey protein load 2.5 g/kg
Method: Male Sprague‐Dawley rats were obtained from CLEA Japan Inc. (Tokyo, Japan). Eight‐week‐old rats were randomized into three groups on the basis of body weight and body weight change before the experiment (n = 4). SCO‐792 (10, 30 mg/kg in a 0.5% (w/v) methylcellulose solution) was then orally administered 1, 2, 4, and 6 hours before an oral whey protein load (2.5 g/kg; SAVAS whey protein 100, Meiji, Japan), and blood samples were collected at indicated time points for the measurement of plasma branched‐chain amino acids (BCAA).
Plasma BCAA concentration was measured using an enzymatic spectrophotometric assay as described by Beckett.14 Briefly, bacterial leucine dehydrogenase was used to catalyze the oxidation of BCAA, and the production of NADH was measured using a spectrophotometer (excitation 355 nm, emission 460 nm). L‐leucine was used to generate a standard curve to determine sample concentrations.

[14] = Chemical stability; format: physicochemical
[15] = 120 min preincubation, rapid dilution
[16] = male, Sprague-Dawley, rat, in vivo, intravenous, 0.2 mg/kg, mean ± SD (n = 3)
[17] = male, Sprague-Dawley, rat, in vivo, oral, 10 mg/kg, mean ± SD (n = 3)

For “5FAM‐Abu‐Gly‐Asp‐Asp‐Asp‐Lys‐Ile‐Val‐Gly‐Gly‐Lys (CPQ2)‐Lys‐Lys‐NH2 [5FAM‐labeled substrate]”, the “K m value for enteropeptidase” value [1] was 0.7 µM.
In the case of N=C(N)Nc1ccc(C(=O)Oc2ccc3c(c2)OC[C@H]3CC(=O)N[C@@H](CC(=O)O)C(=O)O)cc1.O [SCO‐792, N‐({(3S)‐6‐[(4‐carbamimidamidobenzoyl)oxy]‐2,3‐dihydro‐1‐benzofuran‐3‐yl}acetyl)‐L‐aspartic acid hydrate], the IC50 [2] is reported as 5.4 nM, the “time dependence of enteropeptidase inhibition” value [3] is reported as “time‐dependent” and the “k inact/K I” value [3] is reported as 82 000 /mol/L s. The reversibility of inhibition [4] was “reversible”, the “dissociation t 1/2” value [4, 15] was 14 h and the koff [4, 15] was 1.31e-05 s⁻¹. For the same compound, the “inhibitory activity against chymotrypsin” value [5] was under 50%, the inhibition at 10 µM [6] was under 50% and the inhibition at 10 µM [7] was under 50%. The inhibition at 10 µM [8] was under 50%, the inhibition at 10 µM [9] was under 50% and the IC50 [10] was 16 nM. For the same compound, the IC50 [11] was 460 nM, the BA ([12]; from AUC0‐24 h oral 10 mg/kg vs intravenous 0.2 mg/kg) was 0.4% and the AUC(0-inf) [12, 16] was 304 ± 30 ng·h/mL. The half-life [12, 16] was 5.2 ± 1.8 h, the AUC(0-t) [12, 16] was 303 ± 23 ng·h/mL and the clearance ([12]; male, Sprague-Dawley, rat, in vivo, intravenous, 0.2 mg/kg, mean ± SD (n = 3), read-out: CLp (converted)) was 11.1 mL/min/kg. The Vd ([12]; male, Sprague-Dawley, rat, in vivo, intravenous, 0.2 mg/kg, mean ± SD (n = 3), read-out: Vss) was 1.29 ± 0.299 L/kg, the Cmax at 5 min ([12]; male, Sprague-Dawley, rat, in vivo, intravenous, 0.2 mg/kg, observed at 5 minutes, mean ± SD (n = 3), read-out: C max (C5 min)) was 564 ± 58 ng/mL and the AUC(0-inf) [12, 17] was 49.8 ± 5.4 ng·h/mL. The Cmax [12, 17] was 6.6 ± 1.36 ng/mL, the Tmax [12, 17] was 1.7 ± 0.6 h and the half-life [12, 17] was 4.4 ± 0.5 h. For the same compound, the AUC(0-t) [12, 17] was 54.1 ± 7.5 ng·h/mL and the “effect on plasma BCAA elevations induced by oral protein dosing” value [13] was “effectively and dose‐dependently inhibited”.
For Cc1cc(OC(=O)c2ccc(NC(=N)N)cc2)no1 [T‐0046812], the IC50 [2] was 140 nM, the “time dependence of enteropeptidase inhibition” value [3] was “time‐dependent” and the “k inact/K I” value [3] was 5300 mol⁻¹ L⁻¹ s⁻¹. For the same compound, the chemical stability ([14]; pH 1.2) was “unstable” and the chemical stability ([14]; pH 6.8) was “unstable”.
In the case of H-GDDDDK-βNA [GDDDDK‐βNA], the “K m value for enteropeptidase” value [1] is reported as 230 µM.
